Assay: xn = mol fraction of the nth substance listed
Details: 100 kPa, Liquid; for mass density: Vibrating tube method; for speed of sound: Frequency=5 MHz, Pulse-echo method

OCCOCCOCCO [triethylene glycol] + O
Details | mass density [kg/m3] | speed of sound [m/s]
303.15 K, x1 = 0.04979 | 1041.3 | –
303.15 K, x1 = 0.06996 | 1054 | –
303.15 K, x1 = 0.09424 | 1066.08 | –
303.15 K, x1 = 0.1481 | 1084.03 | –
303.15 K, x1 = 0.2006 | 1094.18 | –
303.15 K, x1 = 0.2502 | 1100.12 | –
303.15 K, x1 = 0.2988 | 1103.95 | –
303.15 K, x1 = 0.3492 | 1106.7 | –
303.15 K, x1 = 0.3925 | 1108.43 | –
303.15 K, x1 = 0.4502 | 1110.16 | –
303.15 K, x1 = 0.4877 | 1111.03 | –
303.15 K, x1 = 0.5004 | 1111.29 | –
303.15 K, x1 = 0.5739 | 1112.54 | –
303.15 K, x1 = 0.58 | 1112.63 | –
303.15 K, x1 = 0.6465 | 1113.45 | –
303.15 K, x1 = 0.651 | 1113.5 | –
303.15 K, x1 = 0.7008 | 1113.98 | –
303.15 K, x1 = 0.7471 | 1114.36 | –
303.15 K, x1 = 0.7677 | 1114.51 | –
303.15 K, x1 = 0.82 | 1114.86 | –
303.15 K, x1 = 0.8623 | 1115.11 | –
303.15 K, x1 = 0.8792 | 1115.2 | –
303.15 K, x1 = 0.8975 | 1115.3 | –
303.15 K, x1 = 0.9203 | 1115.41 | –
303.15 K, x1 = 0.9514 | 1115.57 | –
303.15 K, x1 = 0.9692 | 1115.66 | –
303.15 K, x1 = 1 | 1115.81 | –
308.15 K, x1 = 0.000704 | – | 1522.8
308.15 K, x1 = 0.002176 | – | 1528.1
308.15 K, x1 = 0.005721 | – | 1540.6
308.15 K, x1 = 0.01035 | – | 1556
308.15 K, x1 = 0.0107 | 1005.7 | –
308.15 K, x1 = 0.01513 | – | 1570.7
308.15 K, x1 = 0.02047 | 1015.27 | –
308.15 K, x1 = 0.02389 | – | 1595
308.15 K, x1 = 0.03177 | – | 1614.1
308.15 K, x1 = 0.03972 | 1031.49 | –
308.15 K, x1 = 0.0428 | – | 1637
308.15 K, x1 = 0.04979 | 1038.74 | –
308.15 K, x1 = 0.05056 | – | 1650.6
308.15 K, x1 = 0.05793 | – | 1661.8
308.15 K, x1 = 0.06447 | – | 1670.6
308.15 K, x1 = 0.06996 | 1051.15 | –
308.15 K, x1 = 0.07343 | – | 1680.8
308.15 K, x1 = 0.08342 | – | 1690
308.15 K, x1 = 0.09076 | – | 1695.5
308.15 K, x1 = 0.09424 | 1062.94 | –
308.15 K, x1 = 0.1028 | – | 1702.6
308.15 K, x1 = 0.1137 | – | 1707.1
308.15 K, x1 = 0.1189 | – | 1708.7
308.15 K, x1 = 0.1229 | – | 1709.7
308.15 K, x1 = 0.1231 | – | 1709.7
308.15 K, x1 = 0.1269 | – | 1710.5
308.15 K, x1 = 0.1308 | – | 1711.1
308.15 K, x1 = 0.1403 | – | 1712.1
308.15 K, x1 = 0.1427 | – | 1712.2
308.15 K, x1 = 0.1481 | 1080.5 | 1712.3
308.15 K, x1 = 0.1594 | – | 1711.9
308.15 K, x1 = 0.1659 | – | 1711.3
308.15 K, x1 = 0.1738 | – | 1710.3
308.15 K, x1 = 0.1858 | – | 1708.3
308.15 K, x1 = 0.1969 | – | 1706
308.15 K, x1 = 0.2006 | 1090.47 | –
308.15 K, x1 = 0.2172 | – | 1701
308.15 K, x1 = 0.2467 | – | 1692.8
308.15 K, x1 = 0.2502 | 1096.32 | –
308.15 K, x1 = 0.2825 | – | 1682.6
308.15 K, x1 = 0.2988 | 1100.12 | –
308.15 K, x1 = 0.3259 | – | 1670.8
308.15 K, x1 = 0.3492 | 1102.85 | –
308.15 K, x1 = 0.3691 | – | 1660.3
308.15 K, x1 = 0.3925 | 1104.57 | –
308.15 K, x1 = 0.4352 | – | 1646.2
308.15 K, x1 = 0.4502 | 1106.3 | –
308.15 K, x1 = 0.4877 | 1107.17 | –
308.15 K, x1 = 0.5004 | 1107.43 | –
308.15 K, x1 = 0.5067 | – | 1632.7
308.15 K, x1 = 0.5739 | 1108.68 | –
308.15 K, x1 = 0.58 | 1108.77 | –
308.15 K, x1 = 0.6111 | – | 1615.9
308.15 K, x1 = 0.6465 | 1109.59 | –
308.15 K, x1 = 0.651 | 1109.63 | –
308.15 K, x1 = 0.7008 | 1110.12 | –
308.15 K, x1 = 0.7471 | 1110.49 | –
308.15 K, x1 = 0.7677 | 1110.64 | –
308.15 K, x1 = 0.7783 | – | 1598.5
308.15 K, x1 = 0.82 | 1110.99 | –
308.15 K, x1 = 0.8623 | 1111.23 | –
308.15 K, x1 = 0.8792 | 1111.32 | –
308.15 K, x1 = 0.8912 | – | 1591.9
308.15 K, x1 = 0.8975 | 1111.42 | –
308.15 K, x1 = 0.9203 | 1111.54 | –
308.15 K, x1 = 0.9514 | 1111.69 | –
308.15 K, x1 = 0.9608 | – | 1587.5
308.15 K, x1 = 0.9692 | 1111.78 | –
308.15 K, x1 = 1 | 1111.92 | 1584.6
313.15 K, x1 = 0.00059 | – | 1530.8
313.15 K, x1 = 0.002696 | – | 1537.9
313.15 K, x1 = 0.006871 | – | 1551.2
313.15 K, x1 = 0.01006 | – | 1560.8
313.15 K, x1 = 0.0107 | 1003.69 | –
313.15 K, x1 = 0.01494 | – | 1574.7
313.15 K, x1 = 0.02047 | 1013.09 | –
313.15 K, x1 = 0.02274 | – | 1594.6
313.15 K, x1 = 0.02979 | – | 1610.7
313.15 K, x1 = 0.03584 | – | 1623
313.15 K, x1 = 0.03972 | 1028.97 | –
313.15 K, x1 = 0.04219 | – | 1634.6
313.15 K, x1 = 0.04979 | 1036.07 | –
313.15 K, x1 = 0.05045 | – | 1647.8
313.15 K, x1 = 0.05689 | – | 1656.8
313.15 K, x1 = 0.06687 | – | 1668.7
313.15 K, x1 = 0.06996 | 1048.19 | –
313.15 K, x1 = 0.07692 | – | 1678.3
313.15 K, x1 = 0.08288 | – | 1683
313.15 K, x1 = 0.09135 | – | 1688.6
313.15 K, x1 = 0.09262 | – | 1689.3
313.15 K, x1 = 0.09424 | 1059.72 | –
313.15 K, x1 = 0.1004 | – | 1693.3
313.15 K, x1 = 0.1079 | – | 1696.2
313.15 K, x1 = 0.116 | – | 1698.7
313.15 K, x1 = 0.1201 | – | 1699.6
313.15 K, x1 = 0.1232 | – | 1700.2
313.15 K, x1 = 0.1303 | – | 1701.1
313.15 K, x1 = 0.1343 | – | 1701.5
313.15 K, x1 = 0.1377 | – | 1701.6
313.15 K, x1 = 0.1423 | – | 1701.7
313.15 K, x1 = 0.1481 | 1076.91 | –
313.15 K, x1 = 0.1573 | – | 1701
313.15 K, x1 = 0.1723 | – | 1699
313.15 K, x1 = 0.1866 | – | 1696.2
313.15 K, x1 = 0.2006 | 1086.71 | –
313.15 K, x1 = 0.2037 | – | 1692.2
313.15 K, x1 = 0.2426 | – | 1681.2
313.15 K, x1 = 0.2502 | 1092.5 | –
313.15 K, x1 = 0.2794 | – | 1670.3
313.15 K, x1 = 0.2988 | 1096.26 | –
313.15 K, x1 = 0.3209 | – | 1658.6
313.15 K, x1 = 0.3492 | 1098.98 | –
313.15 K, x1 = 0.3925 | 1100.7 | –
313.15 K, x1 = 0.403 | – | 1638.8
313.15 K, x1 = 0.4502 | 1102.42 | –
313.15 K, x1 = 0.4658 | – | 1626
313.15 K, x1 = 0.4877 | 1103.29 | –
313.15 K, x1 = 0.5004 | 1103.55 | –
313.15 K, x1 = 0.5676 | – | 1608
313.15 K, x1 = 0.5739 | 1104.8 | –
313.15 K, x1 = 0.58 | 1104.89 | –
313.15 K, x1 = 0.6465 | 1105.71 | –
313.15 K, x1 = 0.651 | 1105.76 | –
313.15 K, x1 = 0.6969 | – | 1590.8
313.15 K, x1 = 0.7008 | 1106.24 | –
313.15 K, x1 = 0.7471 | 1106.61 | –
313.15 K, x1 = 0.7677 | 1106.76 | –
313.15 K, x1 = 0.82 | 1107.11 | –
313.15 K, x1 = 0.8623 | 1107.35 | –
313.15 K, x1 = 0.8694 | – | 1577.9
313.15 K, x1 = 0.8792 | 1107.44 | –
313.15 K, x1 = 0.9455 | – | 1572.9
313.15 K, x1 = 1 | – | 1569.1
